Reference: patent publication US11180452B2, “Methods and compositions for selectively inhibiting pathogenic microbes” (priority 2019, dated 2021)
Values after ≈ are worked out from the molar mass of the structure shown. Read-outs that look alike come from different tables or passages of the source.

Experiments:
Type in all cases: cell-based
Bacillus thuringiensis = details: for MIC: Bacillus thuringiensis
[1] = system: Burkholderia thailandensis Brett et al ATCC: 700388; assay: microbe, parasite or virus in culture
Trichophyton rubrum = assay: MIC against Trichophyton rubrum; details: Trichophyton rubrum Castellani Sabouraud ATCC: 28188; read-out: MIC
Candida glabrata = Candida glabrata MIC / MFC; details: Nakaseomyces glabratus; for MIC: read-out: MIC
Bacillus subtilis = Bacillus subtilis MIC / MBC; details: for MBC: Bacillus subtilis NRRL: B-571, minimum bactericidal concentration; for MIC: Bacillus subtilis
[2] = system: Francisella tularensis subsp. Holarctica Strain LVSR NR-597; assay: microbe, parasite or virus in culture
C. albicans = assay: Candida albicans MIC / MFC
[3] = Bacillus thuringiensis Berliner ATCC: 10792
[4] = Bacillus thuringiensis Berliner ATCC: 10792, read-out: MIC
[5] = Candida glabrata #584 (Table 2)
[6] = Bacillus subtilis (Ehrenberg 1835) Cohn 1872 NRRL: B-571, read-out: MIC

| SMILES | MBC (Bacillus thuringiensis; [3]) [µg/mL] | MIC (Bacillus thuringiensis; [4]) [µg/mL] | MIC [1] [µg/mL] | MIC (Trichophyton rubrum) [µg/mL] | MIC (Candida glabrata; [5]) [µg/mL] | MBC (Bacillus subtilis) [µg/mL] | MIC (Bacillus subtilis; [6]) [µg/mL] | MIC [2] [µg/mL] | other results |
| --- | --- | --- | --- | --- | --- | --- | --- | --- | --- |
| Brc1ccc2[nH]cc(Sc3cccc4ccccc34)c2c1 [Compound 174G, 5-bromo-3-(naphthalen-1-ylthio)-1H-indole] | 3.13 (≈ 8.84 µM) | 1.56 (≈ 4.4 µM) | > 50 | 2.21 (≈ 6.24 µM) | > 50 | 50 (≈ 141 µM) | 1.56 (≈ 4.4 µM) |  |  |
| Nc1cccc(Sc2c[nH]c3ccc(Br)cc23)c1 [Compound 174Y, 3-((5-bromo-1H-indol-3-yl)thio)aniline] | > 10 | 10 (≈ 31.3 µM) | > 50 | 3.97 (≈ 12.4 µM) | 25 (≈ 78.3 µM) | > 10 | 10 (≈ 31.3 µM) |  |  |
| Brc1ccc(CSc2c[nH]c3ccc(Br)cc23)cc1 [Compound 174O, 5-bromo-3-((4-bromobenzyl)thio)-1H-indole] | 3.13 (≈ 7.88 µM) | 3.13 (≈ 7.88 µM) | > 50 | 1.24 (≈ 3.12 µM) | > 50 | > 50 | 3.13 (≈ 7.88 µM) |  |  |
| Brc1ccc2[nH]cc(SCc3ccccc3)c2c1 [Compound 174K, 3-(benzylthio)-5-bromo-1H-indole] | 6.25 (≈ 19.6 µM) | 3.13 (≈ 9.84 µM) | > 50 | 1.98 (≈ 6.22 µM) | 6.25 (≈ 19.6 µM) | 6.25 (≈ 19.6 µM) | 3.13 (≈ 9.84 µM) |  | MFC (Candida glabrata; Candida glabrata #584 (Table 2), minimum fungicidal concentration, read-out: MFC): 12.5 µg/mL (≈ 39.3 µM) |
| Nc1ccc(Sc2c[nH]c3ccc(Br)cc23)cc1 [Compound 174Z, 4-((5-bromo-1H-indol-3-yl)thio)aniline] | > 10 | 10 (≈ 31.3 µM) | > 50 | 3.97 (≈ 12.4 µM) | 25 (≈ 78.3 µM) | > 10 | 10 (≈ 31.3 µM) |  |  |
| Brc1ccc(Sc2c[nH]c3c(Br)cccc23)cc1 [Compound 174H, 7-bromo-3-((4-bromophenyl)thio)-1H-indole] | 12.5 (≈ 32.6 µM) | 6.25 (≈ 16.3 µM) | > 50 | 2.38 (≈ 6.21 µM) | 12.5 (≈ 32.6 µM) | > 50 | 3.13 (≈ 8.17 µM) | 3.13 (≈ 8.17 µM) |  |
| Brc1ccc2[nH]cc(Sc3ccc(-c4ccccc4)cc3)c2c1 [Compound 174R, 3-([1,1′-biphenyl]-4-ylthio)-5-bromo-1H-indole] |  | > 50 | > 50 | > 9.5 | > 50 |  | > 50 |  |  |
| Brc1ccc(Sc2c[nH]c3ccccc23)cc1 [Compound 174U, 3-((4-bromophenyl)thio)-1H-indole] | 12.5 (≈ 41.1 µM) | 12.5 (≈ 41.1 µM) | > 50 | 0.95 (≈ 3.12 µM) | > 50 | > 10 | > 50 | 1.56 (≈ 5.13 µM) |  |
| COc1ccc(Sc2c[nH]c3ccccc23)cc1 [Compound 156O, 3-((4-methoxyphenyl)thio)-1H-indole] | > 50 | 6.25 (≈ 24.5 µM) |  | 3.19 (≈ 12.5 µM) | 50 (≈ 196 µM) | 12.5 (≈ 49 µM) | 6.25 (≈ 24.5 µM) | 3.13 (≈ 12.3 µM) |  |
| Brc1ccc(Sc2c[nH]c3ccc(Br)cc23)cc1 [Compound 172D, 5-bromo-3-((4-bromophenyl)thio)-1H-indole] | 10 (≈ 26.1 µM) | 1.25 (≈ 3.26 µM) | 100 (≈ 261 µM) | 1.18 (≈ 3.08 µM) | > 50 | 5 (≈ 13.1 µM) | 1.25 (≈ 3.26 µM) | 1.25 (≈ 3.26 µM) | MIC (Bacillus thuringiensis; ATCC10792, […]): 1.25 µg/mL (≈ 3.26 µM); MIC (Bacillus thuringiensis; strain B-1596): 2.5 µg/mL (≈ 6.53 µM); MBC [1]: > 150 µg/mL; MIC (Bacillus subtilis; strain B-571 (Table 4), read-out: Bacillus subtilis MIC): 1.25 µg/mL (≈ 3.26 µM); MIC (Bacillus subtilis; strain B-1985, read-out: Bacillus subtilis MIC): 1.25 µg/mL (≈ 3.26 µM); MIC (Bacillus subtilis; strain B-3665, read-out: Bacillus subtilis MIC): 1.25 µg/mL (≈ 3.26 µM); MIC (Bacillus subtilis; strain B-14322, read-out: Bacillus subtilis MIC): 1.25 µg/mL (≈ 3.26 µM); MIC (Bacillus subtilis; strain B-41090, read-out: Bacillus subtilis MIC): 2.5 µg/mL (≈ 6.53 µM); MIC (Bacillus subtilis; strain B-41581, read-out: Bacillus subtilis MIC): 1.25 µg/mL (≈ 3.26 µM); MIC (Bacillus subtilis; strain BD-594, read-out: Bacillus subtilis MIC): 2.5 µg/mL (≈ 6.53 µM) |
| FC(F)(F)c1ccc2[nH]cc(Sc3ccccc3Br)c2c1 [Compound 174AX, 3-((2-bromophenyl)thio)-5-(trifluoromethyl)-1H-indole] | 2 (≈ 5.37 µM) | 1 (≈ 2.69 µM) |  |  | 12.5 (≈ 33.6 µM) | 8 (≈ 21.5 µM) | 0.5 (≈ 1.34 µM) | 1 (≈ 2.69 µM) | MFC (C. albicans; C. albicans strain #761, read-out: MFC): 50 µg/mL (≈ 134 µM); MIC (C. albicans; C. albicans strain #761, read-out: MIC): 12.5 µg/mL (≈ 33.6 µM); MFC (C. albicans; C. albicans strain #762, read-out: MFC): 12.5 µg/mL (≈ 33.6 µM); MIC (C. albicans; C. albicans strain #762, read-out: MIC): 6.25 µg/mL (≈ 16.8 µM); MIC (Candida glabrata; C. glabrata strain #325): > 50 µg/mL; MIC (Candida glabrata; C. glabrata strain #584 (Table 7)): 12.5 µg/mL (≈ 33.6 µM) |
| O=S(=O)(c1ccc(Br)cc1)c1c[nH]c2ccc(Br)cc12 [Compound 172J, 5-bromo-3-((4-bromophenyl)sulfonyl)-1H-indole] | 3.13 (≈ 7.54 µM) | 1.56 (≈ 3.76 µM) | > 50 | 10.3 (≈ 24.8 µM) | > 50 | 6.25 (≈ 15.1 µM) | 3.13 (≈ 7.54 µM) | 6.25 (≈ 15.1 µM) |  |
